Key:
[1] = tested on: IL-12 induced STAT4 phosphorylation in human CD3+ T cells; experiment: Assay 12: inhibition of IL-12-induced STAT4 phosphorylation in human CD3+ T cells; format: cell-based; details: T-cell, read-out: pIC50 for inhibition of IL-12 induced STAT4 phosphorylation (converted)
Protocol: Assay 12: Inhibition of IL-12-Induced STAT4 Phosphorylation in Human CD3+ T Cells
This cellular potency assay for JAK inhibition was carried out by measuring interleukin-12 (IL-12, R&D Systems) induced STAT4 phosphorylation in human CD3^+ T cells. The CD3 antibody (Becton Dickinson (BD) Biosciences) was conjugated to R-Phycoerythrin (R-PE). The pSTAT4 antibody (pTyr641, BD Biosciences) was conjugated with Alexa Fluor 647.
Human peripheral blood mononuclear cells were cultured at 37° C. in a 5% CO2 humidified incubator in RPMI medium (Life Technologies) supplemented with 10% FBS (Life Technologies), 100 U/mL penicillin, 100 μg/mL streptomycin (Life Technologies), 2 mM GlutaMAX (Life Technologies), plate bound anti CD3 (5 μg/mL, UCHT1, BD Biosciences) and soluble anti-CD28 (1 μg/mL, CD28.2, BD Biosciences) for 3 days. Cells were then resuspended in RPMI medium (Life Technologies) supplemented with 10% FBS (Life Technologies), 100 U/mL penicillin, 100 μg/mL streptomycin (Life Technologies), 2 mM GlutaMAX (Life Technologies) and 10 ng/mL interleukin-2 (IL-2, R&D Systems) for an additional 3 days. […] For dose-response analysis, mean fluorescence intensity values were plotted vs. compound concentrations, and IC50 values were determined from a 4-parameter robust fit model with the Prism software.

[2] = tested on: IL-13-induced STAT6 phosphorylation in BEAS-2B cells; experiment: Assay 2: cellular JAK potency, IL-13-induced STAT6 phosphorylation in BEAS-2B cells; format: cell-based; details: Homo sapiens, read-out: pIC50 for inhibition of IL-13 induced STAT6 phosphorylation (converted)
Protocol: Assay 2: Cellular JAK Potency Assay: Inhibition of IL-13-Induced STAT6 Phosphorylation in BEAS-2B Cells
The cellular potency assay for JAK inhibition was carried out by measuring interleukin-13 (IL-13, R&D Systems) induced STAT6 phosphorylation in BEAS-2B human lung epithelial cells (ATCC). The anti-STAT6 antibody (Cell Signaling Technologies) was conjugated to AlphaScreen acceptor beads (Perkin Elmer), while the anti-pSTAT6 (pTyr641) antibody (Cell Signaling Technologies) was biotinylated using EZ-Link Sulfo-NHS-Biotin (Thermo Scientific).
BEAS-2B cells were grown at 37° C. in a 5% CO2 humidified incubator in 50% DMEM/50% F-12 medium (Life Technologies) supplemented with 10% FBS (Hyclone), 100 U/mL penicillin, 100 μg/mL streptomycin (Life Technologies), and 2 mM GlutaMAX (Life Technologies). […] After a minimum of 2 h incubation, the assay plates were read on the EnVision plate reader. AlphaScreen luminescence signals were recorded and utilized to calculate the percent inhibition values based on DMSO and background controls.
For dose-response analysis, percent inhibition data were plotted vs. compound concentrations, and IC50 values were determined from a 4-parameter robust fit model with the Prism software. Results may also be expressed as the negative logarithm of the IC50 value, pIC50.

Work on `CCS(=O)(=O)N1[C@@H]2CCC[C@H]1C[C@H](N(C)c1nc(CO)c(F)c(Nc3cc(C)[nH]n3)n1)C2` [Compound (I), (2-(((1R,3s,5S)-9-(ethylsulfonyl)-9-azabicyclo[3.3.1]nonan-3-yl)(methyl)amino)-5-fluoro-6-((5-methyl-1H-pyrazol-3-yl)amino)pyrimidin-4-yl)methanol] yielded an IC50 [1] of 63.1 nM and an IC50 [2] of 3.16 nM.

— US10774080B2, “Pyrimidine compound as JAK kinase inhibitor” (THERAVANCE BIOPHARMA R&D IP, LLC, priority 2017, dated 2020)
